Measurements published in patent US12605455B2, “CAR peptide for improved coronavirus survival” (Vascular Biosciences, priority 2020, dated 2026).
Like-named read-outs stand apart in the source and are kept apart here. Bridge positions count the residues as written; N and C are the ends. Peptide text beside a SMILES is read from it.

Legend:
[1] = test system: endothelium of lung, liver and kidney; experiment: Scanning electron micrographs of lung, liver and kidney, sivelestat with or without CAR in septic animals; format: in vivo
Source text: Scanning electron micrographs of lung tissue from control, sivelestat alone, and CAR+sivelestat treated animals. The pulmonary vasculature is shown in the enlargement.
Scanning electron micrographs of liver tissue from control, sivelestat alone, and CAR+sivelestat treated animals. The fenestrated sinusoidal endothelium with clusters of fenestrations, or ‘sieve plates,’ are visible in the control liver vasculature.
Scanning electron micrographs of kidney tissue from control, sivelestat alone, and CAR+sivelestat treated animals. In the enlargement shown of the […] vasculature, the fenestrated glomerular endothelium surrounded by podocyte foot processes (red arrow). […] This is presumably due to activation of neutrophil elastase which leads to proteolytic degradation of critical extracellular matrix proteins. […] The activity of sivelestat's anti-elastase appears to be efficiently boosted by CAR's selective homing to the injured endothelial glycocalyx in the kidney.
(§1) Thus, CAR could potentially adjuvant efficacy of other drugs against viral sepsis, including CAR in combination with sivelstat, as shown at lung (FIG. 9), liver (FIG. 10) and kidney (FIG. 11) samples.

[2] = test system: LPS model of sepsis; experiment: LPS model of sepsis, survival with sivelestat with or without CAR; format: in vivo
Source text: as §1

[3] = test system: endothelium and endothelial glycocalyx of kidney, lung and liver; experiment: Ultrastructural analysis (scanning electron microscopy) of endothelium and endothelial glycocalyx after LPS; format: in vivo; conditions: mice 48 hours after LPS; hydrocortisone 0.2 mg/kg with or without CAR
Experimental: Capillaries of the kidney are fenestrated capillaries which have small holes at endothelial cells. The destruction of this structure was 48 hours after LPS injection. Then, the endothelial wall became edematous and there was deposited fibrin on it. Capillaries of the lung are continuous type of capillaries. Although the vascular endothelium of the lung is thinner at the edges of the nucleus, edema occurred and vascular endothelial structure was impaired 48 hours after LPS injection. Capillaries of the liver are sinusoids which have a lot of large […] gap in normal capillaries. 48 hours after LPS administration, these structures have already broken the edematous of the vascular endothelium and deposited fibrin.
The endothelial glycocalyx (GCX) of the apical endothelial surface of each organ can by visualized using scanning electron microscopy (SEM) to assess GCX appearance and structure. GCX was largely denuded in the untreated sepsis group but the GXX damage was attenuated when CAR is co-administered with low-HCT.
Mice were sacrificed at 48 hours after LPS administration, and kidney, lung and liver were obtained to create frozen fracture freeze-dried samples to detect endothelial changes with electron microscopy. The specimens were examined under a scanning electron microscope (S-4500, Hitachi). […]

[4] = test system: SARS-CoV2; format: in vivo, K18-hACE2 transgenic mice; conditions: HCT 0.2 mg/kg/dose via IT installation every 24 hours: free, liposome encapsulated or CAR-liposome encapsulated
[5] = test system: SARS-CoV2; format: in vivo, K18-hACE2 transgenic mice; conditions: HCT 0.2 mg/kg/dose iv every 12 hours: free, liposome encapsulated or CAR-liposome
[6] = test system: SARS-CoV2; format: in vivo, K18-hACE2 transgenic mice; conditions: hydrocortisone 0.2 mg/kg ip every 6 hours, alone or with CAR 8 mg/kg ip
[7] = test system: CLP sepsis; experiment: Cecal ligation and puncture (2CLP) rat model of sepsis, hydrocortisone with or without CAR; format: in vivo, rats
Experimental: At 40 hours, 4 of the 5 rats in the HCT+CAR group survived while none of the rats in either the HCT group nor the sepsis group survived for 40 hours (n=5 in each group) (Log-rank P=0.008).
8-10 week-old male Sprague Dawley rats were exposed to CLP. Rats were randomized (n=5/group) to saline, hydrocortisone (0.2 mg/kg IV), or CAR (3 mg/kg IV)+HCT. Treatments were initiated 12 hours after surgery, and given every 12 hours afterwards until death, for a maximum of 5 days. Rats were treated with fluid resuscitation but not with antibiotics in this model. Survival was highest in the CAR+HCT group (FIG. 6) (Log-rank P=0.008) and the median Ang2/Ang1 ratio was lower in CAR+HCT than the hydrocortisone group (0.60 vs 1.69, p=0.06).

[8] = test system: LPS-induced endotoxemia; experiment: Survival after LPS-endotoxemia, hydrocortisone with or without CAR; format: in vivo, mice; conditions: for survival rate 48 hours after LPS: C57BL/6 male mice, LPS 20 mg/kg IP
Experimental: 10-week-old C57BL/6 male mice were given an intraperitoneal (IP) injection of Escherichia coli 055:B5 LPS 20 mg/kg. Mice were injected i.p. with 20 mg/kg lipopolysaccharide (LPS). Five different treatments were initiated: saline only group (Untreated, n=31); CAR peptide-alone administration 20 mg/kg ([…]) (CAR alone, n=20); hydrocortisone 0.2 mg/kg or 10 mg/kg Low-HCT or High-HCT, n=20, 28 respectively); and CAR 20 mg/kg co-administered with hydrocortisone 0.2 mg/kg (Low HCT+CAR, n=20). Hydrocortisone and/or CAR peptide were injected intraperitoneally at 3, 12 and 24 hours after LPS administration.

[9] = Safety pharmacology and TID 10-day rising-dose and multiple-dose tolerance study of CAR in rats; format: in vivo
[10] = CAR 3 mg/kg i.v. for 14 days
[11] = test system: hypertensive lungs; conditions: isolated perfused lung experiments (Toba et al. 2014); cited from earlier work
[12] = Irwin test in rats; format: in vivo
[13] = Two-month repeat administration of CAR to pigs; format: in vivo; conditions: IV 3 mg/kg
[14] = sivelestat 0.5 mg/kg or sivelestat 0.5 mg/kg + CAR

Structure (SMILES): CC(C)(C)C(=O)Oc1ccc(S(=O)(=O)Nc2ccccc2C(=O)NCC(=O)O)cc1 [Sivelestat, sivelestat]
- glomerular endothelium fenestrations, SEM kidney images [1]: fenestrations are absent and gross tissue damage is apparent
- liver sinusoidal endothelium sieve plates, SEM liver images [1]: not able to prevent defenestration of sieve plates
- pulmonary arteriole endothelium, SEM lung images [1]: did not prevent degradation of the continuous pulmonary arteriole endothelium
- Survival Rate (%) 12 h ([2]; sivelestat 0.5 mg/kg (n=20) or sivelestat 0.5 mg/kg + CAR (n=18)): 100%
- Survival Rate (%) 24 h [2, 14]: 85%
- Survival Rate (%) 36 h [2, 14]: 60%
- Survival Rate (%) 48 h [2, 14]: 50%

Structure (SMILES): C[C@]12CCC(=O)C=C1CC[C@@H]1[C@@H]2[C@@H](O)C[C@@]2(C)[C@H]1CC[C@]2(O)C(=O)CO [HCT, hydrocortisone]
- endothelial ultrastructure of kidney, lung and liver capillaries [3]: no beneficial effect for septic endothelial disorders
- survival at 7 dpi [4]: some improvements in survival
- survival at 7 dpi [5]: some improvements in survival
- survival at 7 dpi [6]: some improvements in survival
- rats surviving at 40 hours ([7]; 2CLP rats, n=5 in each group, hydrocortisone 0.2 mg/kg IV with or without CAR 3 mg/kg IV every 12 hours from 12 hours after surgery): none
- hyperglycemia ([7]; CLP rats): hyperglycemia observed
- median Ang2/Ang1 ratio ([7]; CLP rats, p=0.06): 1.69
- survival rate 48 hours after LPS ([8]; hydrocortisone 0.2 mg/kg alone or with CAR 20 mg/kg, IP at 3, 12 and 24 hours): 30%
- survival rate 48 hours after LPS ([8]; hydrocortisone 10 mg/kg (High-HCT) IP at 3, 12 and 24 hours): 57%
- survival difference versus untreated sepsis 48 hours after LPS ([8]; CAR alone 20 mg/kg, hydrocortisone 0.2 mg/kg (Low-HCT)): no significant survival difference

Structure (SMILES): C[C@@H]1NC(=O)[C@@H](N)CSSC[C@@H](C(=O)O)NC(=O)[C@H](CC(=O)O)NC(=O)[C@H](CCCCN)NC(=O)[C@H](CC(N)=O)NC(=O)[C@H](CCCCN)NC(=O)[C@H](CO)NC(=O)[C@H](CCCNC(=N)N)NC1=O [CAR, CARSKNKDC] (H-CARSKNKDC-OH; disulfide 1-9; N-terminus and C-terminus assumed)
- mortality, clinical observations, hematology, coagulation, clinical chemistry ([9]; TID 10-day rising-dose and multiple-dose, up to highest dose 20 mg/kg IV): no mortality, adverse clinical observations, and no aberrations in hematology, coagulation or clinical chemistry
- adverse effects on vital physiological systems (safety pharmacology) ([9]; up to the highest levels of CAR tested): no adverse effects
- Creatinine ([10]; healthy adult Sprague-Dawley rats): 0.45 ± 0.02 mg/dL
- ALP ([10]; healthy rats): 170 ± 18 U/L
- AST ([10]; healthy rats): 141 ± 31 U/L
- BUN ([10]; healthy rats): 17 ± 1 mg/dL
- Glucose ([10]; healthy rats): 213 ± 5
- Hb ([10]; healthy rats): 12.8 ± 0.2 g/dL
- Tbili ([10]; healthy rats): 0.10 ± 0.04 mg/dL
- Wbc ([10]; healthy rats): 4.0 ± 0.7 ×1000/μL
- impact on blood renal function, hepatic function, hematologic tests and glucose hemostasis ([10]; healthy rats): no impact
- concentration of the co-administered drug in the diseased lung [11]: doubling
- adverse effects on behavior and physiological function [12]: no adverse effects
- immunological effects or signs of toxicity [13]: no immunological effects or signs of toxicity
